Data as given in US8901295B2 (Institut National de la Sante et de la Recherche Medicale …, priority 2009, dated 2014).
pIC50: −log10 of the molar value.

biological target: Cyclophilin A (CypA) (Homo sapiens (Human), UniProt P62937); experiment: Cyclophilin PPIase enzymatic assay (chymotrypsin coupled), CypA; format: biochemical; conditions: not given
Procedure: (§1) Cyclophilin A, B protein carrying a hexahistidine tag (His-Tag) at the C-terminus, were expressed in Escherichia coli and purified. Briefly, cultures of C41(DE3) cells were grown at 37° C. for ˜1 h until the culture reached an optical density of 0.6 at 600 nm, and induced with 1 mM isopropyl β-D-thiogalactoside for 4 h at 37° C. or overnight at 22° C. for cylophilin A and cyclophilin B, respectively. Cell pellets (1 L) were resuspended in a lysis buffer (20 mM NaH2PO4 (pH 7.8), 300 mM NaCl, 7 mM β-mercaptoethanol, 1 mg/ml lysozyme, 0.1 U/μl Desoxyribonuclease and complete protease inhibitor tablets (Roche)). The sonicated cell lysates were clarified by centrifugation at 10 000 g for 45 min at 4° C., chromatographed on a Ni-NTA column and washed with buffer: (20 mM NaH2PO4 (pH7.8), 300 mM NaCl, 50 mM imidazole, 7 mM β-mercaptoethanol, 10% glycerol). The bound protein was eluted in 1 ml fractions with buffer: (20 mM NaH2PO4 (pH7.8), 300 mM NaCl, 250 mM imidazole, 7 mM β-mercaptoethanol, 10% glycerol) and monitored by the Bradford colorimetric assay. The purity of each cyclophilin was determined by Coomassie-stained SDS-PAGE analysis.
(§2) The reaction was initiated by adding 20 μL of 3.2 mM peptide substrate (Suc-Ala-Ala-cis-Pro-Phe-pNA) in LiCl/TFE solution with rapid inversion. […] The final concentration of LiCl in the assay was 20 mM; TFE was present at a concentration of 4% (v/v). Absorbance readings were collected every 1 s by spectrophotometer. The inhibition assays of compounds were performed in the same manner as mentioned above. A 5 μL aliquot of the compounds in DMSO was added to the cyclophilin solution in the assay buffer. The assay was started by the addition of the substrate. Cyclosporine A was used as control in all measurement. The percentage inhibition of cyclophilin PPiase activity were calculated from slopes and values obtained represent an average of at least two independent measurements.

Chain of Cyclophilin A (CypA) (P62937 whole entry): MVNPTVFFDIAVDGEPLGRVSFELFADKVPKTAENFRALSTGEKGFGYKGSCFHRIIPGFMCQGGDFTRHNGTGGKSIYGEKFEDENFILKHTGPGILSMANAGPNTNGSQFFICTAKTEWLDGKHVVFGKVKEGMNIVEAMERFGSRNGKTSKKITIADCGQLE

Compound | inhibition at 100 µM
Nc1ccc(CNC(=O)NCC(=O)N2CCCC2)cc1 [Compound F537, 1-(4-aminobenzyl)-3-(2-pyrrolidin-1-yl-2-oxoethyl)urea] | 33.4%

same assay, conditions: activity test at 100 μM on CypA

Compound | Inhibition (%)
Nc1ccc(CNC(=O)NCC(=O)N2CCCCC2)cc1 [Compound F543, 1-(4-aminobenzyl)-3-(2-oxo-2-(piperin-1-yl)ethyl)urea] | 27.7%

same assay, conditions: activity test at 100 μM on CypA; read-out: Inhibition (%)

Compound | inhibition at 100 µM
CCN(O)C(=O)CNC(=O)NCc1ccc(N)nc1 [Compound F606, 2-(3-((6-aminopyridin-3-yl)methyl)ureido)-N-hydroxy-N-ethylacetamide] | 18.9%
CCOC(=O)C1CCCN(C(=O)CNC(=O)NCc2ccc(N)cc2)C1 (stereo not drawn) [Compound F545, ethyl 1-(2-(3-(4-aminobenzyl)ureido)acetyl)piperidine-3-carboxylate] | 49.2%
Nc1ccc(CNC(=O)NCC(=O)N2CCOCC2)cc1 [Compound F544, 1-(4-aminobenzyl)-3-(2-morpholino-2-oxoethyl)urea] | 12.2%
Nc1ccc(CNC(=O)NCC(=O)N2CCCC(O)C2)cc1 (stereo not drawn) [Compound F540, 1-(4-aminobenzyl)-3-(2-(3-hydroxy-piperidin-1-yl)-2-oxoethyl)urea] | 32.6%
CCOC(=O)C(Cc1cccc(O)c1)NC(=O)NCc1ccc(N)cc1 (stereo not drawn) [Compound F612, ethyl 2-(3-(4-aminobenzyl)ureido)-3-(3-hydroxyphenyl)propanoate] | 26.3%
CCOC(=O)CNC(=O)NCc1nc2ccccc2[nH]1 [Compound F538, ethyl 2-(3-((1H-benzo[d]imidazol-2-yl)methyl)ureido)acetate] | 15.5%

biological target: Cyclophilin B (CypB) (Homo sapiens (Human), UniProt P23284); experiment: Cyclophilin PPIase enzymatic assay (chymotrypsin coupled), CypB; format: biochemical; conditions: not given
Sequence (P23284 34-216): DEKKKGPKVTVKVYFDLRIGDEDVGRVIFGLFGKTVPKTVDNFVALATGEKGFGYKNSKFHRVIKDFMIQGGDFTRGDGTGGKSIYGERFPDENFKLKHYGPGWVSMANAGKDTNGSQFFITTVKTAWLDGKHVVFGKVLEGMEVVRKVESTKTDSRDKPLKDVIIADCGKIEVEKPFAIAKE
Procedure: as §1, §2

Compound | inhibition at 100 µM
CCN(O)C(=O)CNC(=O)NCc1ccc(N)nc1 [Compound F606, 2-(3-((6-aminopyridin-3-yl)methyl)ureido)-N-hydroxy-N-ethylacetamide] | 17.3%
Cc1noc(C2CCCN2C(=O)CNC(=O)NCc2ccc(N)nc2)n1 (stereo not drawn) [Compound F593, 1-((6-aminopyridin-3-yl)methyl)-3-(2-(2-(3-methyl-1,2,4-oxadiazol-5-yl)pyrrolidin-1-yl)-2-oxoethyl)urea] | 23.4%
CCOC(=O)C1CCCN(C(=O)CNC(=O)NCc2ccc(N)cc2)C1 (stereo not drawn) [Compound F545, ethyl 1-(2-(3-(4-aminobenzyl)ureido)acetyl)piperidine-3-carboxylate] | 65.7%
COC(=O)[C@H]1CCCN1C(=O)CNC(=O)NCc1ccc(N)cc1 [Compound F558, (R)-methyl 1-(2-(3-(4-aminobenzyl)ureido)acetyl)pyrrolidine-2-carboxylate] | 25.9%
CCOC(=O)CNC(=O)NCc1cccc(C(F)(F)F)c1 [Compound F514, ethyl 2-(3-(3-trifluoromethylbenzyl)ureido)acetate] | 19.5%
Nc1ccc(CNC(=O)NCC(=O)N2CCOCC2)cc1 [Compound F544, 1-(4-aminobenzyl)-3-(2-morpholino-2-oxoethyl)urea] | 26%
Nc1ccc(CNC(=O)Nn2cnc3ccccc3c2=O)cc1 [Compound F600, 1-(4-aminobenzyl)-3-(4-oxoquinazolin-3(4H)-yl)urea] | 65.8%
CCOC(=O)CNC(=O)NCc1ccc(N)nc1 [Compound F536, ethyl 2-(3-((6-aminopyridin-3-yl)methyl)ureido)acetate] | 47.6%
Nc1ccc(CNC(=O)NCC(=O)N2CCCC2c2ccccn2)cn1 (stereo not drawn) [Compound F586, 1-((6-aminopyridin-3-yl)methyl)-3-(2-oxo-2-(2-(pyridin-2-yl)pyrrolidin-1-yl)ethyl)urea] | 38.4%
CN(C(=O)CNC(=O)NCc1ccc(N)nc1)C1CCCCC1 [Compound F595, 2-(3-((6-aminopyridin-3-yl)methyl)ureido)-N-cyclohexyl-N-methylacetamide] | 29.1%
CCN(OCc1ccccc1)C(=O)CNC(=O)NCc1ccc(N)nc1 [Compound F599, 2-(3-((6-aminopyridin-3-yl)methyl)ureido)-N-(benzyloxy)-N-ethylacetamide] | 71.8%
CCOC(=O)CNC(=O)NCc1cc(Cl)cc(Cl)c1 [Compound F520, ethyl 2-(3-(3,5-dichlorobenzyl)ureido)acetate] | 18.9%
CCOC(=O)CNC(=S)NCc1ccc(N)nc1 [Compound F569, ethyl 2-(3-((6-aminopyridin-3-yl)methyl)thioureido)acetate] | 17.1%
CCOC(=O)CNC(=O)NCc1cc(C)on1 [Compound F526, ethyl 2-(3-((5-methylisoxazol-3-yl)methyl)ureido)acetate] | 21.2%
CCOC(=O)C(Cc1cccc(O)c1)NC(=O)NCc1ccc(N)cc1 (stereo not drawn) [Compound F612, ethyl 2-(3-(4-aminobenzyl)ureido)-3-(3-hydroxyphenyl)propanoate] | 26.7%
CCOC(=O)CNC(=O)NCc1cccc2c1OCCO2 [Compound F525, ethyl 2-(3-((2,3-dihydrobenzo[b][1,4]dioxin-5-yl)methyl)ureido)acetate] | 21.6%
CCOC(=O)CNC(=O)NCc1ccc(O)cc1O [Compound F572, ethyl 2-(3-(2,4-dihydroxybenzyl)ureido)acetate] | 27.6%
CCOC(=O)CNC(=O)NCCNc1ccccc1 [Compound F515, ethyl 2-(3-(2-(phenylamino)ethyl)ureido)acetate] | 18.2%
COc1cccc(CNC(=O)CNC(=O)NCc2ccc(N)cc2)c1 [Compound F563, 2-(3-(4-aminobenzyl)ureido)-N-3-methoxybenzylacetamide] | 16.4%
Nc1ccc(CNC(=O)NCC(=O)N2CCC(O)CC2)cc1 [Compound F561, 1-(4-aminobenzyl)-3-(2-(4-hydroxy-piperidin-1-yl)-2-oxoethyl)urea] | 15.1%
COc1ccccc1C1CCCN1C(=O)CNC(=O)NCc1ccc(N)nc1 (stereo not drawn) [Compound F587, 1-((6-aminopyridin-3-yl)methyl)-3-(2-(2-(2-methoxyphenyl)pyrrolidin-1-yl)-2-oxoethyl)urea] | 99%
CCOC(=O)CNC(=O)NCc1c(F)cccc1NC(C)=O [Compound F565, ethyl 2-(3-(2-acetamido-6-fluorobenzyl)ureido)acetate] | 34.5%
CCOC(=O)CNC(=O)NCCc1ccc(O)cc1 [Compound F517, ethyl 2-(3-(4-hydroxyphenylethyl)ureido)acetate] | 20%
Nc1ccc(CNC(=O)NCC(=O)N2CCCC2)cc1 [Compound F537, 1-(4-aminobenzyl)-3-(2-pyrrolidin-1-yl-2-oxoethyl)urea] | 24.5%
CCOC(=O)CNC(=O)NCc1ccc(F)cc1 [Compound F513, ethyl 2-(3-(4-fluorobenzyl)ureido)acetate] | 23.3%
CCOC(=O)CNC(=O)NCc1ccc(O)cc1 [Compound F576, ethyl 2-(3-(4-hydroxybenzyl)ureido)acetate] | 18.4%
CSc1cccc(CN(C(=O)CNC(=O)NCc2ccc(N)nc2)C(C)C)c1 [Compound F592, 2-(3-((6-aminopyridin-3-yl)methyl)ureido)-N-isopropyl-N-(3-(methylthio)benzyl)acetamide] | 18.9%
CN(C(=O)CNC(=O)NCc1ccc(N)nc1)c1ccc(F)cc1 [Compound F597, 2-(3-((6-aminopyridin-3-yl)methyl)ureido)-N-(4-fluorophenyl)-N-methylacetamide] | 46.3%

same assay, conditions: CypB

Compound | pIC50
CCOC(=O)C1CCCN(C(=O)CNC(=O)NCc2ccc(N)cc2)C1 (stereo not drawn) [Compound F545, ethyl 1-(2-(3-(4-aminobenzyl)ureido)acetyl)piperidine-3-carboxylate] | 4.12
COc1ccccc1C1CCCN1C(=O)CNC(=O)NCc1ccc(N)nc1 (stereo not drawn) [Compound F587, 1-((6-aminopyridin-3-yl)methyl)-3-(2-(2-(2-methoxyphenyl)pyrrolidin-1-yl)-2-oxoethyl)urea] | 5.28

same assay, conditions: activity test at 100 μM on CypB

Compound | Inhibition (%)
(S)-1-((6-aminopyridin-3-yl)methyl)-3-(2-oxo-2-(2-(pyridin-3-yl)pyrrolidin-1-yl)ethyl)urea [Compound F588] | 23.2%
2-(3-(4-aminobenzyl)ureido)-N-2-phenyl-ethyl-N-methylacetamide [Compound F551] | 20.8%
CCOC(=O)CNC(=O)NCc1cccc(-c2ncccn2)c1 [Compound F524] | 15.4%
CCOC(=O)CNC(=O)NCc1ccccc1-c1ccco1 [Compound F528] | 38.9%
Nc1ccc(CNC(=O)NCC(=O)NCc2cccc(-n3cncn3)c2)cc1 [Compound F562, 2-(3-(4-aminobenzyl)ureido)-N-(3-(1H,1,2,4-triazol-1-yl)benzyl)acetamide] | 28.0%
Nc1ccc(CNC(=O)Nc2cnc3sccn3c2=O)cn1 [Compound F596, 1-((6-aminopyridin-3-yl)methyl)-3-(5-oxo-5H-thiazolo[3,2-c]pyrimidin-6-yl)urea] | 19.8%
Nc1ccc(CNC(=O)NCC(=O)NCc2cccc(CN3CCOCC3)c2)cc1 [Compound F559] | 21.9%
Nc1ccc(CNC(=O)NCC(=O)N2CCCCC2)cc1 [Compound F543, 1-(4-aminobenzyl)-3-(2-oxo-2-(piperin-1-yl)ethyl)urea] | 37.5%
Nc1ccc(CNC(=O)NCC(=O)N2CCOCC2)cn1 [Compound F594] | 37.0%
Nc1ccc(CNC(=O)NCC(=O)N2CCCO2)cn1 [Compound F585, 1-((6-aminopyridin-3-yl)methyl-3-(2-isoxazolidin-2-yl)-2-oxoethyl)urea] | 35.0%
CC(C)N(Cc1cccc2c1OCO2)C(=O)CNC(=O)NCc1ccc(N)nc1 [Compound F590, 1-(((6-aminopyridin-3-yl)methyl)ureido)-N-(benzo[d][1,3]dioxol-4-ylmethyl)-N-isopropylacetamide] | 18.2%
CCOC(=O)CNC(=O)NCc1ccc(N)c2ccccc12 [Compound F577, ethyl 2-(3-((4-aminonapht-1-yl)methyl)ureido)acetate] | 47.3%
CCOC(=O)CNC(=O)NCc1cccc2ccccc12 [Compound F490, ethyl 2-(3-((napht-1-yl)methyl)ureido)acetate] | 33.1%
